From PubChem BioAssay (NCI)
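Test compounds were applied to cells in 96-well plates for 48 hours at 5 doses. GI50 marks 50% less growth. TGI: concentration producing complete growth inhibition.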

What was measured:
Assay in all cases: inhibition of tumour cell growth, NCI panel, 48 h
MDA-N = test system: MDA-N
SK-MEL-28 melanoma = test system: SK-MEL-28 melanoma
SF-539 CNS = test system: SF-539 CNS
SW-620 colon = test system: SW-620 colon
SF-295 CNS = test system: SF-295 CNS
OVCAR-8 ovarian = test system: OVCAR-8 ovarian
KM12 colon = test system: KM12 colon
SK-MEL-2 melanoma = test system: SK-MEL-2 melanoma
U251 CNS = test system: U251 CNS
RXF 393 renal = test system: RXF 393 renal

Row | SMILES | TGI (MDA-N) [µM] | TGI (SK-MEL-28 melanoma) [µM] | TGI (SF-539 CNS) [µM] | TGI (SW-620 colon) [µM] | TGI (SF-295 CNS) [µM] | TGI (OVCAR-8 ovarian) [µM] | TGI (KM12 colon) [µM] | GI50 (SF-539 CNS) [µM] | GI50 (SK-MEL-2 melanoma) [µM] | TGI (SK-MEL-2 melanoma) [µM] | TGI (U251 CNS) [µM] | TGI (RXF 393 renal) [µM] | GI50 (SK-MEL-28 melanoma) [µM] | GI50 (U251 CNS) [µM] | GI50 (RXF 393 renal) [µM] | GI50 (SF-295 CNS) [µM] | GI50 (OVCAR-8 ovarian) [µM] | GI50 (KM12 colon) [µM] | GI50 (SW-620 colon) [µM]
1 | COc1cccc(C=C2N=C(C)N(n3c(-c4ccccc4)nc4ccccc4c3=O)C2=O)c1 | > 100 | > 100 | > 100 | > 100 | > 100 | > 100 | > 100 |  |  |  |  |  |  |  |  |  |  |  | 
2 | CCc1c(C)c2ccc(OCC(=O)N=Nc3c(O)[nH]c4ccccc34)c(C)c2oc1=O |  |  | > 33.3 |  |  |  |  | > 33.3 | > 33.3 | > 33.3 |  |  |  |  |  |  |  |  | 
3 | CCOC(=O)c1cn2c(ccc3sc4ccccc4c(=O)c32)n1 | > 100 | > 100 | > 100 | > 100 | > 100 | > 100 | > 100 |  |  |  | > 100 | > 100 |  |  |  |  |  |  | 
4 | CCCCc1c2c(nc3c1CC/C(=C\c1ccc([N+](=O)[O-])cc1)C3=O)CCCC2 |  | 3.12 | 3.2 | 3.53 | 4.07 | 3.47 | 3.52 |  |  |  | 2.96 | 2.63 |  |  |  |  |  |  | 
5 | O=C1CCCC2=C1CC1=C(CCCC1=O)N2c1cccc([N+](=O)[O-])c1 |  | > 100 | > 100 | > 100 |  | > 100 | > 100 |  |  |  | > 100 | > 100 |  |  |  |  |  |  | 
6 | Cc1nc2ccccc2n1Cc1nnc2n1N=C(c1ccccc1)CS2 | > 100 | > 100 | > 100 | > 100 | > 100 |  | > 100 |  |  | 40.7 | > 100 |  |  |  |  |  |  |  | 
7 | O=C1CSC(C(N=Nc2ccc(Cl)cc2)c2nc3ccccc3[nH]2)=N1 (configuration not stated) |  | 92.2 | 52.9 | > 100 | > 100 | > 100 | > 100 |  |  | 41.8 | > 100 |  |  |  |  |  |  |  | 
8 | COc1ccc(/C=C2\CN(C)CC3C2=NN(c2ccccc2)C3c2ccc(OC)cc2)cc1 (configuration not stated) | > 100 | > 100 |  | > 100 | > 100 | > 100 | > 100 |  |  |  |  | 48.2 |  |  |  |  |  |  | 
9 | CCn1c(=O)c2c3cc(OC(C)=O)ccc3oc2c2ccc(OC(C)=O)cc21 | > 100 | > 100 | 94.3 | > 100 | 72 | > 100 | > 100 |  |  |  | > 100 | > 100 |  |  |  |  |  |  | 
10 | CC(C)[C@](O)(C(=O)OCC1=CCN2CC[C@@H](O)[C@@H]12)[C@H](C)O |  | > 375 | > 375 | > 237 | > 375 | > 375 | > 375 |  |  | > 375 | > 375 | > 375 |  |  |  |  |  |  | 
11 | COc1cc2cc(C(=O)N3CC(CCl)c4c3cc(O)c3ccccc43)[nH]c2c(OC)c1OC (configuration not stated) |  |  | < 0.005 | > 50 |  | > 50 | > 50 |  |  | < 0.005 | 24.6 | < 0.005 |  |  |  |  |  |  | 
12 | NC(=O)SCC(=O)Nc1ccc2ncccc2c1 | > 100 | > 100 | > 100 | > 100 | > 100 | > 100 | > 100 |  |  | > 100 | 48.7 |  |  |  |  |  |  |  | 
13 | CCCCCCCCCCCCCCCCOc1ccc(/C=C/C2=[N+](CCCl)CCO2)cc1 | > 100 | > 100 | > 100 | > 100 | > 100 | > 100 | > 100 |  |  | > 100 | > 100 |  |  |  |  |  |  |  | 
14 | Cc1c(-c2ccc(O)c(O)c2)oc(=O)c2c(O)cccc12 |  |  | 48.4 | 61.2 | 42.2 | > 100 | 24.2 |  |  | 28 | 26.1 | 36 |  |  |  |  |  |  | 
15 | C[C@]12CCc3sc(-c4cccc(F)c4)nc3C1=CC[C@@H]1[C@@H]2CC[C@]2(C)C(=O)CC[C@@H]12 |  | 4.07 | 2.48 |  | 4.91 | > 100 | 17.6 | 1.04 | 2.74 | 10.7 | 13.6 | 2.94 | 1.53 | 2 | 1.41 | 1.59 | 3.45 | 3.34 | 
16 | Cc1nn(-c2ccccc2)c2nc3ccc(Cl)cc3c(-c3ccccc3)c12 | > 100 | > 100 |  | > 100 | > 100 | > 100 | > 100 |  |  | > 100 | > 100 |  |  |  |  |  |  |  | 
17 | CCCCS(=O)CC(CO)NC(=O)/C=C/c1c(C)[nH]c(=O)[nH]c1=O (configuration not stated) |  | 44.5 | 35.4 | 152 | 38.8 | 32.4 | 49.7 |  |  | 23.4 | 26.7 | 51.3 |  |  |  |  |  |  | 

Row | SMILES | TGI (MDA-N) [µM] | TGI (SK-MEL-28 melanoma) [µM] | TGI (SF-539 CNS) [µM] | TGI (SW-620 colon) [µM] | TGI (SF-295 CNS) [µM] | TGI (OVCAR-8 ovarian) [µM] | TGI (KM12 colon) [µM] | GI50 (SF-539 CNS) [µM] | GI50 (SK-MEL-2 melanoma) [µM] | TGI (SK-MEL-2 melanoma) [µM] | TGI (U251 CNS) [µM] | TGI (RXF 393 renal) [µM] | GI50 (SK-MEL-28 melanoma) [µM] | GI50 (U251 CNS) [µM] | GI50 (RXF 393 renal) [µM] | GI50 (SF-295 CNS) [µM] | GI50 (OVCAR-8 ovarian) [µM] | GI50 (KM12 colon) [µM] | GI50 (SW-620 colon) [µM]
18 | Cc1cc(=O)c2ccccc2n1CCCCCCCCCCn1c(C)cc(=O)c2ccccc21 | 43.1 | 35.1 | 44.3 | 56 |  | 46.7 | 29.4 |  |  |  | 29 | 72.3 |  |  |  |  |  |  | 
19 | Cc1nc2ccccc2c(=O)n1/N=C/c1ccc(N(C)C)cc1 | > 100 | > 100 | > 100 | > 100 | > 100 | > 100 | > 100 |  |  | > 100 | > 100 |  |  |  |  |  |  |  | 
20 | C=CCN1C[C@@H](C)N([C@@H](c2ccc(C(=O)N(CC)CC)cc2)c2cccc(OC)c2)C[C@@H]1C | > 100 | > 100 | > 100 | > 100 | > 100 | > 100 | > 100 |  |  | > 100 | > 100 |  |  |  |  |  |  |  | 
21 | CCN(CC)CC(=O)Nc1ccc2c(c1)C(=O)c1ccc(NC(=O)CN(CC)CC)cc1C2=O |  | > 100 | 30.9 | 69.8 | > 100 | 94.9 | 70 |  |  | > 100 | 47 | 29.7 |  |  |  |  |  |  | 
22 | COc1cc2cc3c4c(cc(OC)c(OC)c4c2cc1OC)CCN3C(=O)CCC(=O)O |  | > 100 | > 100 | > 100 | > 100 |  | > 100 |  |  | > 100 | > 100 | > 100 |  |  |  |  |  |  | 
23 | NC(=O)C1CCCN1C(=O)N(CCCl)N=O (configuration not stated) | > 100 | > 100 | > 100 | > 100 | > 100 | > 100 | > 100 |  |  | > 100 | > 100 |  |  |  |  |  |  |  | 
24 | O=C1CCCN1CCCN=c1cc2n(-c3ccc(Cl)cc3)c3ccccc3nc-2cc1Nc1ccc(Cl)cc1 |  | 47.5 | 28.2 | 68.5 | 40.7 | 53.2 | 28.7 |  |  | 30.7 | 54.2 | 11.3 |  |  |  |  |  |  | 
25 | COc1ccc(-c2nc3c(nc2-c2ccc(OC)cc2)N(C)S(=O)(=O)N=C3N)cc1 |  | > 100 | 51.5 | > 100 | 84.3 | > 100 | 92.2 |  |  | 57.7 | > 100 | 44.1 |  |  |  |  |  |  | 
26 | O=C(c1ccccc1)c1nn(-c2ccccc2)c2nc3nc(-c4ccccc4)cc(=O)n3nc12 |  | > 100 | 38.6 | > 100 | 53 | 84.8 | 82.1 | 19.2 | 23.8 | 65.6 | > 100 | > 100 | 37.8 | 32.6 | 26 | 19.9 | 27.1 | 28.3 | 33.1
27 | CC(C)N(/C(F)=N\C(=O)Nc1ccccc1C(F)(F)F)C(C)C | > 100 | > 100 | > 100 | > 100 | > 100 | > 100 | > 100 |  |  | 78.5 | > 100 |  |  |  |  |  |  |  | 
28 | O=c1[nH]c(=O)n2n1C1C=CC2CC1 | > 100 | > 100 | > 100 | > 100 | > 100 | > 100 | > 100 |  |  | > 100 | > 100 |  |  |  |  |  |  |  | 
29 | CC1CC(C(=O)OC2OC(COC3OC(CO)C(OC4OC(C)C(O)C(O)C4O)C(O)C3O)C(O)C(O)C2O)C2CCC3(C)C(=CCC4(C)C3CCC3C(C)(CO)C(O)C(O)CC34C)C2C1C (configuration not stated) | 36.4 | 33.5 | 38 | 88.3 | 82.8 | 32.3 | 33.4 |  |  | 42.2 | 33.5 |  |  |  |  |  |  |  | 
30 | COC(=O)C1C(O)C(C)C(O)OC1C(C)C(O)C(C)/C=C\C=C(/C)C(=O)Nc1c(C)c(OC(C)=O)c2c(c1O)C(=O)C(C)=C1OCOC(/C(C)=C/C(C)=O)=C12 (configuration not stated) |  | 4.96 | 23.7 | 20.4 | 26 | 30.7 | 26.5 |  |  | 20.9 | 27.7 | 24.8 |  |  |  |  |  |  | 
31 | NC(C(=O)OC(=O)c1ccccc1)C(=O)OC(=O)c1ccccc1 |  | > 100 | > 100 | > 100 | > 100 | > 100 | > 100 |  |  | > 100 | > 100 | > 100 |  |  |  |  |  |  | 
32 | CC#CCCCC1(C)CCCNC1=S (configuration not stated) |  |  | > 10 | > 10 | > 10 | > 10 | > 10 |  |  | > 10 | > 10 | > 10 |  |  |  |  |  |  | 
33 | CN=C(NC)N(C)c1nc(=[N+](C)C)ss1 |  | > 100 | > 100 | > 100 | > 100 | > 100 | > 100 |  |  | > 100 | > 100 | > 100 |  |  |  |  |  |  | 
